Values after ≈ are worked out from the molar mass of the structure shown.
Columns and labels:
[1] = system: C. parapsilosis ATCC 22019; test: Anti-Fungal Activity Assay (broth microtiter MIC), C. parapsilosis; format: cell-based, Candida parapsilosis; conditions: Lodderomyces parapsilosis, ATCC22019, 48 h, 3 replicates; MIC recorded at 48 h; read-out: MIC C. parapsilosis ATCC 22019
In short: (§1)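 Candida strains were grown from frozen stock on Sabouraud dextrose agar overnight at 35° C, then suspended directly in RPMI 1640+MOPS and quantified against standard curves. Broth microdilution MIC plates followed CLSI M27-A3; MICs were read visually against growth control at 48 h, with a 24 h read added for soraphen.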

Human ACC2 = Human ACC2 (Homo sapiens, UniProt O00763); test: In vitro ACC2 inhibition assay (ADP-Glo), human ACC2; format: biochemical; conditions: 5 nM ACC2, 20 μM ATP, 20 μM acetyl-CoA
C. albicans ATCC 90028 = test: Anti-Fungal Activity Assay (broth microtiter MIC), C. albicans; format: cell-based, Candida albicans; conditions: Candida albicans, ATCC90028, 48 h, 3 replicates; MIC recorded at 48 h; read-out: MIC C. albicans ATCC 90028
In short: as §1

Fungal ACC2 = Fungal ACC2 (UniProt Q00955); conditions: read-out: Fungal ACC2 (IC50, in vitro ACC2 inhibition)
C. krusei ATCC 6258 = test: Anti-Fungal Activity Assay (broth microtiter MIC), C. krusei; format: cell-based, Candida krusei; conditions: Pichia kudriavzevii, ATCC6258, 48 h, 3 replicates; MIC recorded at 48 h; read-out: MIC C. krusei ATCC 6258
In short: as §1

Sequence of Human ACC2 (O00763 whole entry): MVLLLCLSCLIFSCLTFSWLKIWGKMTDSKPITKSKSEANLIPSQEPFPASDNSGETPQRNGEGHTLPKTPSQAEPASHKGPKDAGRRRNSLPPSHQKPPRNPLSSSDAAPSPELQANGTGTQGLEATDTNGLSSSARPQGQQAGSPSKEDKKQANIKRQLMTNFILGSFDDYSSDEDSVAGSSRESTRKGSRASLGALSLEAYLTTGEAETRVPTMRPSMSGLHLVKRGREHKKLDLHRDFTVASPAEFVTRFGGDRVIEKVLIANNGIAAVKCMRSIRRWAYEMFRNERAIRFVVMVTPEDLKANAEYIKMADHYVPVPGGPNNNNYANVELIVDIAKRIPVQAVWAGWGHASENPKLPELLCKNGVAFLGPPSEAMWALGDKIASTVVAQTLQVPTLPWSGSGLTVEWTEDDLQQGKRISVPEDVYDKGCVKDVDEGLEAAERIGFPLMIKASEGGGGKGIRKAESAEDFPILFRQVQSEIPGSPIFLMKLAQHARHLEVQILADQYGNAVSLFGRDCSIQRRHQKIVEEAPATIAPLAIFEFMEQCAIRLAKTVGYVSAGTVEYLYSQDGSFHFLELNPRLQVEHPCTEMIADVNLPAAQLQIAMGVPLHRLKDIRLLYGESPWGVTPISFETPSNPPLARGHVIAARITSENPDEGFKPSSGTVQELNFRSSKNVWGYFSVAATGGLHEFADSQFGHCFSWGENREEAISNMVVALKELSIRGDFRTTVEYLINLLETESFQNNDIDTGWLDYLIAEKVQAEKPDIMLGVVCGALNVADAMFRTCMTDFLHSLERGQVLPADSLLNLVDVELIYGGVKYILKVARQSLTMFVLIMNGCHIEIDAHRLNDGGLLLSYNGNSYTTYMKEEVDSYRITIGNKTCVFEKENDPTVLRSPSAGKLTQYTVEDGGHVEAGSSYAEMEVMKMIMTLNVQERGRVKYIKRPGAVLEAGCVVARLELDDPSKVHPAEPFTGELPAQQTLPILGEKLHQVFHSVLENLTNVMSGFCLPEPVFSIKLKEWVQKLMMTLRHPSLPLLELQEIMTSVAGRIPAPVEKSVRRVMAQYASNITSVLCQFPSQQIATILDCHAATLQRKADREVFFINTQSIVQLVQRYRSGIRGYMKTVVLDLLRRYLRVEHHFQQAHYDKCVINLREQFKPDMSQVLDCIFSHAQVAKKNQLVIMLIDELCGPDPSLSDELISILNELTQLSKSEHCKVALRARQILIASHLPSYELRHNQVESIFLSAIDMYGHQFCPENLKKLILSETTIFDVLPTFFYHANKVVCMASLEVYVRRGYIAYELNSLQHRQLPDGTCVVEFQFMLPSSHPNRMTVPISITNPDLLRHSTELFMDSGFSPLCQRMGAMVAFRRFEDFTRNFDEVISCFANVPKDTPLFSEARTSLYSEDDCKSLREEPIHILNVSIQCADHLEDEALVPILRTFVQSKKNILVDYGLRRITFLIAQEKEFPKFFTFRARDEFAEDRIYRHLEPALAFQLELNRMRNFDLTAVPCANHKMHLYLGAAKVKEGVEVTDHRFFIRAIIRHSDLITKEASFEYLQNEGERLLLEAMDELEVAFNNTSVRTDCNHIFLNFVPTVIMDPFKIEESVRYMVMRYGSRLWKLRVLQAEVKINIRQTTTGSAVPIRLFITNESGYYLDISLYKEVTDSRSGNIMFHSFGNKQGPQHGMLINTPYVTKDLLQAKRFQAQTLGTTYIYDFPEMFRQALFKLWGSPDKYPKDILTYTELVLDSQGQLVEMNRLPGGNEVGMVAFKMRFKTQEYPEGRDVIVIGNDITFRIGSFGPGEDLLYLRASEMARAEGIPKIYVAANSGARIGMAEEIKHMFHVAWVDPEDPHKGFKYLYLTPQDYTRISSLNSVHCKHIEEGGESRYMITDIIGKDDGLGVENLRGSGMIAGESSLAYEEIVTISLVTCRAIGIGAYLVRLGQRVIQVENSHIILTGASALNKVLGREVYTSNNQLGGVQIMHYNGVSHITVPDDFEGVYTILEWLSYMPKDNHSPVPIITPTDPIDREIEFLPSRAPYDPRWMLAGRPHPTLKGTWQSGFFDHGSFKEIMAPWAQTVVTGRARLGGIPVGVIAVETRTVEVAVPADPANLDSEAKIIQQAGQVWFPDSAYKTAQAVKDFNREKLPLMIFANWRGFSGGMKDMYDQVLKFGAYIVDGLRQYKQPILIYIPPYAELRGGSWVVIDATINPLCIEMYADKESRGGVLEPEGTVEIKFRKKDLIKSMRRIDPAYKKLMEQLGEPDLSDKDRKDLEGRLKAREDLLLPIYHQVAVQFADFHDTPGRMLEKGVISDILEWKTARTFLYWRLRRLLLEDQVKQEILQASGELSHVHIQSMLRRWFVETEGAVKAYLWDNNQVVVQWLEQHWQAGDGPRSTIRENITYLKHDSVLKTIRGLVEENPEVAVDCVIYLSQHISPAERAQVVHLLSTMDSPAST
Sequence of Fungal ACC2 (Q00955 whole entry): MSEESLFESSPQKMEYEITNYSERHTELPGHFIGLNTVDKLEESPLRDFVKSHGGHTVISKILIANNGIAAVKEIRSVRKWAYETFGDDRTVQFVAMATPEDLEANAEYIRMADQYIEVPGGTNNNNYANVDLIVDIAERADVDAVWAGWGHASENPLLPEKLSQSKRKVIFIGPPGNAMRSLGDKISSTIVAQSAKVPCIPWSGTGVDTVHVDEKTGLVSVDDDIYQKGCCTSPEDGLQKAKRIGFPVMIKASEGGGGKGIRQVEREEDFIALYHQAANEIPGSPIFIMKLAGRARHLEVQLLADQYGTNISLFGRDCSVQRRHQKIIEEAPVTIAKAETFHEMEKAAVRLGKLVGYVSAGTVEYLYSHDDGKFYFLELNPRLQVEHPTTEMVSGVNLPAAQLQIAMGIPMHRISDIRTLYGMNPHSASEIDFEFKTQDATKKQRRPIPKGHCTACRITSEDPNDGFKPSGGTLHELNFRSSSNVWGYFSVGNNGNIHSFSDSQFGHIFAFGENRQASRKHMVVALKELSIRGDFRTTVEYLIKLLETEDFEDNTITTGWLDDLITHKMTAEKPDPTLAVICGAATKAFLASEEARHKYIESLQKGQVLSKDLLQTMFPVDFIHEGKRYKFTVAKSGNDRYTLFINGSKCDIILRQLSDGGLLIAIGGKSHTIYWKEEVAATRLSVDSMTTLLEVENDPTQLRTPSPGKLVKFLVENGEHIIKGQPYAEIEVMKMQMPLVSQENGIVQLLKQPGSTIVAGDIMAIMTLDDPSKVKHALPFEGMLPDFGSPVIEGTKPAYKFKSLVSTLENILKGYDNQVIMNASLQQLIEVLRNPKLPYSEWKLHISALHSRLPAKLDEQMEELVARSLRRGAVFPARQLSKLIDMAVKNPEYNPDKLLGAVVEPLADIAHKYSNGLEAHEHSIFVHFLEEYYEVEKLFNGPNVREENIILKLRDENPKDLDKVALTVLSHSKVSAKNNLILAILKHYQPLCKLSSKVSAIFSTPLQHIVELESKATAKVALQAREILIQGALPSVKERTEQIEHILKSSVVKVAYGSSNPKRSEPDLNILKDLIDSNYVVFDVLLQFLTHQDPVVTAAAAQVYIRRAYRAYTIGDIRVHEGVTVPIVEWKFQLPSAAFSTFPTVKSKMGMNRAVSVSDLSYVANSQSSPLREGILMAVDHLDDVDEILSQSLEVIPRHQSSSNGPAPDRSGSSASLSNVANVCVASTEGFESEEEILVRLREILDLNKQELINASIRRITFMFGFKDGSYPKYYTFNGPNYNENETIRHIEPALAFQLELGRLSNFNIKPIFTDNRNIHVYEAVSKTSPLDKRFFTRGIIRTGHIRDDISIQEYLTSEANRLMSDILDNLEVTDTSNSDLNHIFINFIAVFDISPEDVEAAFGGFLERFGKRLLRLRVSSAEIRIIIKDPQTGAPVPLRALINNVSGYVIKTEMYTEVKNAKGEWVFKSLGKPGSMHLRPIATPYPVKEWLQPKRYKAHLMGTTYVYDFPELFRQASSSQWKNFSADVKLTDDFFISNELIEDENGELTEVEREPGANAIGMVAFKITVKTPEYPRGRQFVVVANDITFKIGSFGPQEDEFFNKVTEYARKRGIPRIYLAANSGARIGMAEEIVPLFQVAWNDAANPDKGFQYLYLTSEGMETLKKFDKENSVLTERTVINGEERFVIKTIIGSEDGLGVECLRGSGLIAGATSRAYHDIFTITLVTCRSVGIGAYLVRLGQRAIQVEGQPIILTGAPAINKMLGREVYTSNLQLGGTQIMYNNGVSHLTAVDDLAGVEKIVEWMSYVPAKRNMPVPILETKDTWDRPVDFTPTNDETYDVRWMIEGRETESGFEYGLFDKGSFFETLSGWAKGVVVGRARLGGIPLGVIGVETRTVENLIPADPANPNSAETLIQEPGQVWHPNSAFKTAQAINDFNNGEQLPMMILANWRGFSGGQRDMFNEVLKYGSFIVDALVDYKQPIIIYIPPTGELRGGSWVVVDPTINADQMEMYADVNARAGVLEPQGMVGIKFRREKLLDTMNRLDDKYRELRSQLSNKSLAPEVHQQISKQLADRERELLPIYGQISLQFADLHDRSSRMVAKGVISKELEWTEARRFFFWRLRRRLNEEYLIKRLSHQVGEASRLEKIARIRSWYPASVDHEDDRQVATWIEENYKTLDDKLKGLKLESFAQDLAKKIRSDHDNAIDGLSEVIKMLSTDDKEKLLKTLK

| Compound | MIC [1] [µg/mL] | IC50 (Human ACC2) [nM] | MIC (C. albicans ATCC 90028) [µg/mL] | IC50 (Fungal ACC2) [nM] | MIC (C. krusei ATCC 6258) [µg/mL] |
| --- | --- | --- | --- | --- | --- |
| COc1ccc(F)cc1[C@H](Cn1c(=O)n([C@@H]2CCCNC2=O)c(=O)c2c(C)c(-n3nccn3)sc21)O[C@H]1CC[C@@H](O)CC1 [Compound I-174, 1-((R)-2-(5-fluoro-2-methoxyphenyl)-2-(((1 s, 4S)-4-hydroxycyclohexyl)oxy)ethyl)-5-methyl-3-((R)-2-oxopiperidin-3-yl)-6-(2H-1,2,3-triazol-2-yl)thieno[2,3-d]pyrimidine-2,4(1H,3H)-dione] | 1.1 to 2 (≈ 1.8 to 3.26 µM) | 2 to 10 | 0.25 to 1 (≈ 0.408 to 1.63 µM) | 0.7 to 2 | 0.25 to 1 (≈ 0.408 to 1.63 µM) |
| COc1ccc(F)cc1[C@H](Cn1c(=O)n([C@@H]2CCN(C)C2=O)c(=O)c2c(C)c(-n3nccn3)sc21)OCCC(=O)O [Compound I-175, 3-((R)-1-(5-fluoro-2-methoxyphenyl)-2-(5-methyl-3-((R)-1-methyl-2-oxopyrrolidin-3-yl)-2,4-dioxo-6-(2H-1,2,3-triazol-2-yl)-3,4-dihydro-thieno[2,3-d]pyrimidin-1(2H)-yl)ethoxy)propanoic acid] | 2.1 to 4 (≈ 3.58 to 6.82 µM) | 10 to 100 | 2.1 to 4 (≈ 3.58 to 6.82 µM) | 0.7 to 2 | 2.1 to 4 (≈ 3.58 to 6.82 µM) |
| COc1ccc(F)cc1[C@H](Cn1c(=O)n([C@H]2CCN(C)C2=O)c(=O)c2c(C)c(-n3nccn3)sc21)OCCC(=O)O [Compound I-176, 3-((R)-1-(5-fluoro-2-methoxyphenyl)-2-(5-methyl-3-((S)-1-methyl-2-oxopyrrolidin-3-yl)-2,4-dioxo-6-(2H-1,2,3-triazol-2-yl)-3,4-dihydrothieno[2,3-d]pyrimidin-1 (2H)-yl)ethoxy)propanoic acid] | 2.1 to 4 (≈ 3.58 to 6.82 µM) | 10 to 100 | 2.1 to 4 (≈ 3.58 to 6.82 µM) | 2 to 10 | 2.1 to 4 (≈ 3.58 to 6.82 µM) |
| COc1ccc(F)cc1[C@H](Cn1c(=O)n([C@H]2CCCNC2=O)c(=O)c2c(C)c(-n3nccn3)sc21)OCCC(=O)O [Compound I-177, 3-((R)-1-(5-fluoro-2-methoxyphenyl)-2-(5-methyl-2,4-dioxo-3-((S)-2-oxopiperidin-3-yl)-6-(2H-1,2,3-triazol-2-yl)-3,4-dihydrothieno[2,3-d]pyrimidin-1 (2H)-yl)ethoxy)propanoic acid] | 2.1 to 4 (≈ 3.58 to 6.82 µM) | 10 to 100 | 2.1 to 4 (≈ 3.58 to 6.82 µM) | 2 to 10 | 2.1 to 4 (≈ 3.58 to 6.82 µM) |
| COc1ccc(F)cc1[C@H](Cn1c(=O)n([C@@H]2CCN(C)C2=O)c(=O)c2c(C)c(-n3cccn3)sc21)OCCC(=O)O [Compound I-179, 3-((R)-1-(5-fluoro-2-methoxyphenyl)-2-(5-methyl-3-((R)-1-methyl-2-oxopyrrolidin-3-yl)-2,4-dioxo-6-(H-pyrazol-1-yl)-3,4-dihydrothieno[2,3-d]pyrimidin-1 (2H)-yl)ethoxy)propanoic acid] | 2.1 to 4 (≈ 3.59 to 6.83 µM) | 10 to 100 | 2.1 to 4 (≈ 3.59 to 6.83 µM) | 2 to 10 | 2.1 to 4 (≈ 3.59 to 6.83 µM) |
| COc1ccc(F)cc1[C@H](Cn1c(=O)n([C@H]2CCN(C)C2=O)c(=O)c2c(C)c(-n3cccn3)sc21)OCCC(=O)O [Compound I-180, 3-((R)-1-(5-fluoro-2-methoxyphenyl)-2-(5-methyl-3-((S)-1-methyl-2-oxopyrrolidin-3-yl)-2,4-dioxo-6-(1H-pyrazol-1-yl)-3,4-dihydrothieno[2,3-d]pyrimidin-1(2H)-yl)ethoxy)propanoic acid] | 2.1 to 4 (≈ 3.59 to 6.83 µM) | 100 to 1000 | 2.1 to 4 (≈ 3.59 to 6.83 µM) | 10 to 100 | 2.1 to 4 (≈ 3.59 to 6.83 µM) |
| COc1ccc(F)cc1[C@H](Cn1c(=O)n([C@@H]2CCN(C)C2=O)c(=O)c2c(C)c(-n3cccn3)sc21)O[C@H]1CC[C@@H](O)CC1 [Compound I-181, 1-((R)-2-(5-fluoro-2-methoxyphenyl)-2-(((I s, 4S)-4-hydroxycyclohexyl)oxy)ethyl)-5-methyl-3-((R)-1-methyl-2-oxopyrrolidin-3-yl)-6-(1H-pyrazol-1-yl)thieno[2,3-d]pyrimidine-2,4(1H,3H)-dione] | 1.1 to 2 (≈ 1.8 to 3.27 µM) | 2 to 10 | 0.25 to 1 (≈ 0.409 to 1.63 µM) | 0.7 to 2 | 1.1 to 2 (≈ 1.8 to 3.27 µM) |
| COc1ccc(F)cc1[C@H](Cn1c(=O)n([C@H]2CCN(C)C2=O)c(=O)c2c(C)c(-n3cccn3)sc21)O[C@H]1CC[C@@H](O)CC1 [Compound I-182] | 2.1 to 4 (≈ 3.43 to 6.54 µM) | 10 to 100 | 2.1 to 4 (≈ 3.43 to 6.54 µM) | 0.7 to 2 | 2.1 to 4 (≈ 3.43 to 6.54 µM) |
| COc1ccc(F)cc1[C@H](Cn1c(=O)n([C@@H]2CCN(C)C2=O)c(=O)c2c(C)c(-n3nccn3)sc21)O[C@H]1C[C@@H](O)C1 [Compound I-183, 1-((R)-2-(5-fluoro-2-methoxyphenyl)-2-((1s, 3S)-3-hydroxycyclobutoxy)ethyl)-5-methyl-3-((R)-1-methyl-2-oxopyrrolidin-3-yl)-6-(2H-1,2,3-triazol-2-yl)thieno[2,3-d]pyrimidine-2,4(1H,3H)-dione] | 1.1 to 2 (≈ 1.88 to 3.42 µM) | 2 to 10 | 0.25 to 1 (≈ 0.428 to 1.71 µM) | 0.7 to 2 | 0.25 to 1 (≈ 0.428 to 1.71 µM) |
| COc1ccc(F)cc1[C@H](Cn1c(=O)n([C@@H]2CCNC2=O)c(=O)c2c(C)c(-n3nccn3)sc21)O[C@H]1C[C@@H](O)C1 [Compound I-184, 1-((R)-2-(5-fluoro-2-methoxyphenyl)-2-((1s, 3S)-3-hydroxycyclobutoxy)ethyl)-5-methyl-3-((R)-2-oxopyrrolidin-3-yl)-6-(2H-1-1,2,3-triazol-2-yl)thieno[2,3-d]pyrimidine-2,4(1H,3H)-dione] | 2.1 to 4 (≈ 3.68 to 7.01 µM) | 2 to 10 | 2.1 to 4 (≈ 3.68 to 7.01 µM) | 0.7 to 2 | 2.1 to 4 (≈ 3.68 to 7.01 µM) |
| COc1ccc(F)cc1[C@H](Cn1c(=O)n([C@@H]2CCNC2=O)c(=O)c2c(C)c(-n3nccn3)sc21)O[C@H]1C[C@H](O)C1 [Compound I-186, 1-((R)-2-(5-fluoro-2-methoxyphenyl)-2-((1r,3R)-3-hydroxycyclobutoxy)ethyl)-5-methyl-3-((R)-2-oxopyrrolidin-3-yl)-6-(2H-1,2,3-triazol-2-yl)thieno[2,3-d]pyrimidine-2,4(1H,3H)-dione] | 2.1 to 4 (≈ 3.68 to 7.01 µM) | 2 to 10 | 2.1 to 4 (≈ 3.68 to 7.01 µM) | 0.7 to 2 | 2.1 to 4 (≈ 3.68 to 7.01 µM) |
| COc1ccc(F)cc1[C@H](Cn1c(=O)n([C@H]2CCNC2=O)c(=O)c2c(C)c(-n3nccn3)sc21)O[C@H]1CC[C@@H](O)CC1 [Compound I-187, 1-((R)-2-(5-fluoro-2-methoxyphenyl)-2-(((1 s, 4S)-4-hydroxycyclohexyl)oxy)ethyl)-5-methyl-3-((S)-2-oxopyrrolidin-3-yl)-6-(2H-1,2,3-triazol-2-yl)thieno[2,3-d]pyrimidine-2,4(1H,3H)-dione] | 2.1 to 4 (≈ 3.51 to 6.68 µM) | 2 to 10 | 2.1 to 4 (≈ 3.51 to 6.68 µM) | 0.7 to 2 | 2.1 to 4 (≈ 3.51 to 6.68 µM) |
| COc1ccc(F)cc1[C@H](Cn1c(=O)n([C@@H]2CCNC2=O)c(=O)c2c(C)c(-n3nccn3)sc21)O[C@H]1CC[C@@H](O)CC1 [Compound I-188, 1-((R)-2-(5-fluoro-2-methoxyphenyl)-2-(((1 s, 4S)-4-hydroxycyclohexyl)oxy)ethyl)-5-methyl-3-((R)-2-oxopyrrolidin-3-yl)-6-(2H-1,2,3-triazol-2-yl)thieno[2,3-d]pyrimidine-2,4(1H3H)-dione] | 1.1 to 2 (≈ 1.84 to 3.34 µM) | 2 to 10 | 0.25 to 1 (≈ 0.418 to 1.67 µM) | 0.7 to 2 | 0.25 to 1 (≈ 0.418 to 1.67 µM) |
| Cc1c(-n2nccn2)sc2c1c(=O)n([C@@H]1CCN(C)C1=O)c(=O)n2C[C@H](O[C@H]1CC[C@@H](O)CC1)c1cc(F)ccc1O [Compound I-189, 1-((R)-2-(5-fluoro-2-hydroxyphenyl)-2-(((1s, 4S)-4-hydroxycyclohexyl)oxy)ethyl)-5-methyl-3-((R)-1-methyl-2-oxopyrrolidin-3-yl)-6-(2H-1,2,3-triazol-2-yl)thieno[2,3-d]pyrimidine-2,4(1H, 3H)-dione] | 2.1 to 4 (≈ 3.51 to 6.68 µM) | 2 to 10 | 2.1 to 4 (≈ 3.51 to 6.68 µM) | 0.7 to 2 | 2.1 to 4 (≈ 3.51 to 6.68 µM) |
| Cc1c(-n2nccn2)sc2c1c(=O)n([C@H]1CCN(C)C1=O)c(=O)n2C[C@H](O[C@H]1CC[C@@H](O)CC1)c1cc(F)ccc1O [Compound I-190, 1-((R)-2-(5-fluoro-2-hydroxyphenyl)-2-(((1 s, 4S)-4-hydroxycyclohexyl)oxy)ethyl)-5-methyl-3-((S)-1-methyl-2-oxopyrrolidin-3-yl)-6-(2H-1,2,3-triazol-2-yl)thieno[2,3-d]pyrimidine-2,4(1H,3H)-dione] | 2.1 to 4 (≈ 3.51 to 6.68 µM) | 10 to 100 | 2.1 to 4 (≈ 3.51 to 6.68 µM) | 0.7 to 2 | 2.1 to 4 (≈ 3.51 to 6.68 µM) |
